Assay results from patent US20030092683A1, “Use of tetracyclines as neuro-protective agents and for the treatment of parkinson's disease and related disorders” (priority 2001, published 2003).

System: TH-positive (dopaminergic) neurons in the SNpc
Assay: MPTP-induced neuronal death in vivo, TH-positive neurons by immunohistochemistry
Set-up: species or system C57BL/6 mice
Details: for viable TH-positive neurons in the SNpc: MPTP 20 mg/kg x4 on day 3, analysed 7 days after last MPTP, MPTP without minocycline 37% of control
Method: On day 3 mice were injected with MPTP (20 mg/kg×4). Seven days following the last injection of MPTP, the brains were analyzed by immun histochemistry to detect and quantify tyrosin hydroxylase (TH)-positive neurons.

CN(C)c1ccc(O)c2c1C[C@H]1C[C@H]3[C@H](N(C)C)C(O)=C(C(N)=O)C(=O)[C@@]3(O)C(O)=C1C2=O [minocycline]
viable TH-positive neurons in the SNpc (minocycline 90 mg/kg p.o. daily for nine days): 56 % of control
viable TH-positive neurons in the SNpc, treatment after MPTP (minocycline 120 mg/kg p.o. beginning 4 h after the last MPTP injection, MPTP without minocycline 36% of control, p<0.05): 66 % of control
viable TH-positive neurons in the SNpc (minocycline 120 mg/kg p.o. daily for nine days): 77 % of control
